# Assay results as given in publication PMC2855214 (Biochemistry, 2010).
# Biological target: T1, human UMP/CMP kinase (Homo sapiens, UniProt P30085)
# T1 sequence (P30085 1-196): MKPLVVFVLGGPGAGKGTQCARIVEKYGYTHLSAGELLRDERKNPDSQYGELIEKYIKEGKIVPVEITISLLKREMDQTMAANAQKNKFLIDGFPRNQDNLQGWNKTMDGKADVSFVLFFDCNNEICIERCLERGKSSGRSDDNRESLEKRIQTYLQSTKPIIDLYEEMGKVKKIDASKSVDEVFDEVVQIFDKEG
# Test: preparative enzymatic phosphorylation, product NMR
# Type: biochemical
# Details: ATP, Mg2+, pH 8, 37 °C
smiles,measurement,value
"Nc1ccn([C@@H]2O[C@H](COP(=O)(O)O)[C@@H](O)C2(F)F)c(=O)n1 [F2CMP, 2′-Deoxy-2′,2′-difluorocytidine-5′-monophosphate]","preparative enzymatic phosphorylation, product NMR",F2CDP was generated enzymatically from F2CMP and ATP with human UMP/CMP kinase
